Data published in patent publication US20210038587A1, “METHODS AND COMPOSITIONS FOR TREATING NON-ERK MAPK PATHWAY INHIBITOR-RESISTANT CANCERS” (BIOMED VALLEY DISCOVERIES, INC., priority 2013, published 2021).
Values after ≈ are worked out from the molar mass of the structure shown. Read-outs that look alike come from different tables or passages of the source.

How the values were obtained:
CDK1/cyclinB = CDK1/cyclinB (Homo sapiens, UniProt P06493); assay: Kinase counter-screen, Ki; format: biochemical; details: apparent Ki
CDK1/cyclinB, sequence (P06493 whole entry, species assumed): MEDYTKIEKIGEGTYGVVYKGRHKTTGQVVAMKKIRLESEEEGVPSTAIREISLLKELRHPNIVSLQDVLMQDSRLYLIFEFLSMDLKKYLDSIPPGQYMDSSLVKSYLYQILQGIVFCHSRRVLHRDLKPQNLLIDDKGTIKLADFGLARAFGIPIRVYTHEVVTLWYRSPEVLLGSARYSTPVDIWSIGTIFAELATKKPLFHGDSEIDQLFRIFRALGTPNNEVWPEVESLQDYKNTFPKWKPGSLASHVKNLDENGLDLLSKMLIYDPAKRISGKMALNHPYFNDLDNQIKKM
CDK1/cyclinB, sequence (P14635 whole entry partner, species assumed): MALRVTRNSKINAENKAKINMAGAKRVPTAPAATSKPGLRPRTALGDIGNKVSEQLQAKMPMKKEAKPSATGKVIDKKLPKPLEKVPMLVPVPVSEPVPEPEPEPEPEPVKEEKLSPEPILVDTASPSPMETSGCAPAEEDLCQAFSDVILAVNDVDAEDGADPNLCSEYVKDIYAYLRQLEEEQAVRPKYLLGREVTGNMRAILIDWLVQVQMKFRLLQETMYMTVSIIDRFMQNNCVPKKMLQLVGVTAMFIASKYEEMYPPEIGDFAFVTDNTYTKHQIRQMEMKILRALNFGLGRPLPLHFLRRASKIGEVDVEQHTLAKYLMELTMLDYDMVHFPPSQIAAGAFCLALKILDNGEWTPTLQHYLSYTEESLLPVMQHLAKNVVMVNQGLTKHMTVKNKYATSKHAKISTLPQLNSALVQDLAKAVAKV
Source text: (§2) The ATP concentrations were approximately equal to the Km in all assays.

CDK5/p35 = CDK5/p35 (Homo sapiens, UniProt Q00535); assay: Kinase counter-screen, Ki; format: biochemical; details: apparent Ki
CDK5/p35, sequence (Q00535 whole entry, species assumed): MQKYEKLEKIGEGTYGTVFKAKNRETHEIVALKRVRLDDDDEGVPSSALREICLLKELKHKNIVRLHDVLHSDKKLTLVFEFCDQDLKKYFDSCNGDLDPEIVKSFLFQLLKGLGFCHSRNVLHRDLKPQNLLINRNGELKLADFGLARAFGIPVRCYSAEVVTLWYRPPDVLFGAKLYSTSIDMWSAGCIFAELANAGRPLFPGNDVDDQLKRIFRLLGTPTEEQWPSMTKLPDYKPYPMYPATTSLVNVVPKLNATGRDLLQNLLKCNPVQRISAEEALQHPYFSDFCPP
CDK5/p35, sequence (Q15078 whole entry partner, species assumed): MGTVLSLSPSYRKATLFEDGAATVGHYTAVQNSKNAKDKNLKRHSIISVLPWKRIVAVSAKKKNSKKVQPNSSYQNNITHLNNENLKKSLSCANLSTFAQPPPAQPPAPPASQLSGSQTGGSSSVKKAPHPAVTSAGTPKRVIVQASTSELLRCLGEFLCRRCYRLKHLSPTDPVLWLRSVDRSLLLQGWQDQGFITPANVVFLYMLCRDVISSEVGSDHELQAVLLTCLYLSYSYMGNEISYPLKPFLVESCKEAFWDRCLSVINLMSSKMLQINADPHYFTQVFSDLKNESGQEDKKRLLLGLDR
Source text: as §2

CDK6/cycinD3 = CDK6/cycinD3 (Homo sapiens, UniProt Q00534); assay: Kinase counter-screen, Ki; format: biochemical; details: apparent Ki
CDK6/cycinD3, sequence (Q00534 whole entry, species assumed): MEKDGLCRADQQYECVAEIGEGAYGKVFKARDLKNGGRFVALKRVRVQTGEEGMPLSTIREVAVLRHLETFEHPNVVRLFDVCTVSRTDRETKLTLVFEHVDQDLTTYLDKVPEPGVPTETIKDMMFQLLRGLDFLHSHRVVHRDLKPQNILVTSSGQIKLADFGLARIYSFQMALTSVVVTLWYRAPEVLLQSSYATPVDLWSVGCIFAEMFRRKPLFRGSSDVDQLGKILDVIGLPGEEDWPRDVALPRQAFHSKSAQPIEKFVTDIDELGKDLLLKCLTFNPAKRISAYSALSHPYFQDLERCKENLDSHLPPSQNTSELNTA
CDK6/cycinD3, sequence (P30281 whole entry partner, species assumed): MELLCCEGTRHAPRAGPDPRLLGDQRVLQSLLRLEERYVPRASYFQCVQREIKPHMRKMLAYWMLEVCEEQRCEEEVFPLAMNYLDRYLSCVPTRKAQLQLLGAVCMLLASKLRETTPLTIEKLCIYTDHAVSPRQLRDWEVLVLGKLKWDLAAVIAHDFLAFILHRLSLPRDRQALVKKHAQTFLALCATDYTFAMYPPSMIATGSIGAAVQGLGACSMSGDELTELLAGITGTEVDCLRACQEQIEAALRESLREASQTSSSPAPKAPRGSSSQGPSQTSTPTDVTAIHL
Source text: as §2

P38γ = P38γ (Homo sapiens, UniProt P53778); assay: Kinase counter-screen, Ki; format: biochemical; details: apparent Ki
P38γ, sequence (P53778 whole entry): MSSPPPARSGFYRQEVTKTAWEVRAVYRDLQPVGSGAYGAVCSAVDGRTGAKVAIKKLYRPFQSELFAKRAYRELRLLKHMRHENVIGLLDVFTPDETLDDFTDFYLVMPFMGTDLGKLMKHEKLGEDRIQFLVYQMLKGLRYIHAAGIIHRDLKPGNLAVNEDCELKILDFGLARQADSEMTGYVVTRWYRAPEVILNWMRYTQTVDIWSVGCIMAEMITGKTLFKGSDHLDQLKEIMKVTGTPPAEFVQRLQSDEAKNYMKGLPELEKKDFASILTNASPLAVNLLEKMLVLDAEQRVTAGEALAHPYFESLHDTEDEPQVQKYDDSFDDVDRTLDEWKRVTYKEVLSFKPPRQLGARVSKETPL
Source text: as §2

RSK3 = RSK3 (Homo sapiens, UniProt Q15349); assay: Kinase counter-screen, Ki; format: biochemical
RSK3, sequence (Q15349 whole entry, species assumed): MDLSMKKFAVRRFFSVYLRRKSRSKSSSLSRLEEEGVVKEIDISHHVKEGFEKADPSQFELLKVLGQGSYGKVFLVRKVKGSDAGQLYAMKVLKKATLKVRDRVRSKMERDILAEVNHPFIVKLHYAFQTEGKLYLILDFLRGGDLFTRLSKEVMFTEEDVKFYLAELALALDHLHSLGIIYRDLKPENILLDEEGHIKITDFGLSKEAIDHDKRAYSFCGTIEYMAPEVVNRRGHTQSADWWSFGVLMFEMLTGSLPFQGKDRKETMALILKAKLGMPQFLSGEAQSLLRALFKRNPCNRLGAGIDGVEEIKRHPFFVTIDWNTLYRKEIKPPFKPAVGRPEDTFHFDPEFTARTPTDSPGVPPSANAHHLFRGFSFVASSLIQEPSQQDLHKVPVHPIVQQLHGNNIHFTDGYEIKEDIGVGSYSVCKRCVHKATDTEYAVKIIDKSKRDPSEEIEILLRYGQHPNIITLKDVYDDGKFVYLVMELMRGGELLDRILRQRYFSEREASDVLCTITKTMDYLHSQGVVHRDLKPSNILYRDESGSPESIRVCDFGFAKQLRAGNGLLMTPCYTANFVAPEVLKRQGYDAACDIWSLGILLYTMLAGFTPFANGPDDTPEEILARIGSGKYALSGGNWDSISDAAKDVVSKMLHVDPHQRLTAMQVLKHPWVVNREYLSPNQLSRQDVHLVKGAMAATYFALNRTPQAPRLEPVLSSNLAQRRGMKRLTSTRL
Source text: as §2

A375 xenografts = assay: A375 xenografts, BVD-523 in combination with dabrafenib; format: in vivo, mice; details: 100 mg/kg BID
Source text: For measurement of antitumor activity in A375 xenografts, xenografts were initiated with A375 cells maintained by serial subcutaneous transplantation in female athymic nude mice. Each test mouse received an A375 tumor fragment (1 mm^3) implanted subcutaneously in the right flank. Once tumors reached target size (80-120 mm^3), animals were randomized into treatment and control groups, and drug treatment was initiated.
(§1) Combination dosing was stopped on Day 20 to monitor for tumor regrowth. Animals were monitored individually and euthanized when each tumor reached an endpoint volume of 2000 mm^3, or the final day (Day 45), whichever came first, and median time to endpoint (TTE) calculated. The combination was also evaluated in an upstaged A375 model where larger tumors in the range 228-1008 mm^3 were evaluated. Here, mice were randomized into 1 group (Group 1) of 14 and 4 groups (Groups 2-5) of 20. […] Tumors were measured twice weekly. Combination dosing was stopped on Day 42 to monitor for tumor regrowth through study end (Day 60). Treatment outcome was determined from % TGD, defined as the percent increase in median TTE for treated versus control mice, with differences between groups analyzed via log rank survival analysis. […] Mice were also monitored for CR and PR responses. Animals with a CR at the end of the study were additionally classified as TFS.

upstaged A375 xenografts = assay: Upstaged A375 xenograft model, BVD-523 in combination with dabrafenib; format: in vivo, mice; details: 100 mg/kg BID
Protocol: as §1

[1] = tested on: ERK1/2 phosphorylation in Colo205 xenografts; assay: pERK1/2 in Colo205 xenograft tumors (ITIS mass spectrometry, IHC); format: in vivo, mice; details: single 100 mg/kg oral dose
Protocol: For measurement of ERK1/2 Isotope-Tagged Internal Standard (ITIS) Mass Spectrometry in Colo205 Xenografts, frozen tumors were lysed in 10 volumes of ice cold lysis buffer (10 mM TRIS-HCl, pH 8.0, 10 mM MgCl2, 1% (v/v) Triton X-100, Complete™ Protease Inhibitor Cocktail [Roche, cat. No. 1836170], Phosphatase Inhibitor Cocktail I [Sigma, cat. No. P-2850], Phosphatase Inhibitor Cocktail II [Sigma cat. No. 5726], and benzonase [Novagen cat. No. 70664]). Lysates were clarified by centrifugation (100,000×g for 60 minutes at 4° C.) and the supernatants adjusted to 2 mg/mL with lysis buffer. ERK1 was immunoprecipitated using agarose-coupled and pan-anti-ERK1 (Santa Cruz Biotechnology cat. No. sc-93ac) antibodies. […]
For ITIS analysis, digested samples were spiked with heavy-atom labeled peptide standards and fractional phosphorylation was quantified by coupled liquid chromatography-tandem mass spectrometry (MS). […]
For analysis of pERK IHC in Colo205 xenografts, xenograft tumors were processed overnight in 70% through 100% graded ethanols, cleared in two changes of xylene, infiltrated with paraffin, and embedded into paraffin blocks. […] A single section from each animal and dose group was probed with anti-phospho p42/p44 MAPK antibody (pERK [1:100], CST; Cat no. 9101; Lot no. 16), counterstained with hematoxylin, and then analyzed microscopically using a Zeiss Axioplan 2 microscope. […]

[2] = tested on: PMA-stimulated RSK1 phosphorylation; assay: Ex vivo inhibition of PMA-stimulated RSK1 phosphorylation in human whole blood; format: cell-based
[3] = Phase I study: pharmacokinetic analysis; format: in vivo, human; details: for AUC(0-t) / Cmax: plasma
Protocol: Blood samples were collected prior to dosing, and then at 0.5 (±5 min), 1 (±5 min), 2 (±10 min), 4 (±10 min), 6 (±10 min), 8 (±10 min), and 12 (±2 hr) hours on Day 1 (Visit 2; baseline/initiation of treatment) and Day 15 (Visit 4; at steady state) after the morning dose. On Day 22, prior to dose administration, a final blood sample was collected for pharmacokinetic analyses. Urine samples were collected predose and at the 1- to 6-hour and 6- to 12-±2-hour intervals postdose on Days 1 and 15. […] Standard pharmacokinetic parameters were obtained using Phoenix WinNonlin (Pharsight) with a noncompartmental method. Relationship between dose and exposure was calculated using standard least-squares regression analysis.

[4] = tested on: PMA stimulated ERK activity (RSK-1 phosphorylation); assay: Phase I study: pharmacodynamic target inhibition (pRSK in patient whole blood); format: in vivo; details: Homo sapiens, 360 h, prior to Day 15 dosing
ERK1 = ERK1 (Homo sapiens, UniProt P27361); assay: biochemical
ERK1, sequence (P27361 whole entry): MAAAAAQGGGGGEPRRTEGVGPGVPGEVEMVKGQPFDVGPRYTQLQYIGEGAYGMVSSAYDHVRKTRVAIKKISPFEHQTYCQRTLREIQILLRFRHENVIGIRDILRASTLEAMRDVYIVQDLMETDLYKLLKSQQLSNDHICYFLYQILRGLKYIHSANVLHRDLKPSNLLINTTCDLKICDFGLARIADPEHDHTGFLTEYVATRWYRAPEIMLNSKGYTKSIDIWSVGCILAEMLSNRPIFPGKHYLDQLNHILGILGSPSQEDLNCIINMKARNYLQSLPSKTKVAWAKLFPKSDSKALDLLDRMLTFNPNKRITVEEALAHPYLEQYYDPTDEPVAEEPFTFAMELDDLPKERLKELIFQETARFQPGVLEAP
Protocol: The reaction was initiated by the addition of 65 μM of ATP. Decreased absorbance rate (340 nm) was monitored and the IC50 was determined as a function of inhibitor concentration.

Colo205 xenografts = assay: BVD-523 activity in Colo205 xenografts
RKO colorectal cell line = assay: Western blot of nuclear and cytoplasmic fractions; format: cell-based; details: versus DMSO
Protocol: For Western blot analysis, A375 cells were seeded onto 10 cm dishes in Dulbecco's Modified Eagle's Medium plus 10% (v/v) FBS. Cells were allowed to adhere overnight prior to the addition of test compound or vehicle. For experiments with RKO cells, these cells were seeded in 6-well plates or 10 cm dishes with McCoy's 5A+10% (v/v) FBS. Cells were then treated at the desired concentration and duration. Cells were harvested by trypsinization, pelleted, and snap frozen. Lysates were prepared with RIPA buffer supplemented with protease and phosphatase inhibitor cocktails (Roche), clarified by centrifugation at 11,000 rpm for 10 minutes, and quantitated by bicinchoninic acid assay. Samples were resolved by SDS-PAGE, blotted onto polyvinylidene difluoride membranes, and probed using antibodies (i.e., pRB [Ser780], cat. no. 9307; CCND1, cat. no. ab6152; BCL-xL, cat. no. 2762; PARP, cat. no. 9542; DUSP6, cat. no. 3058S) directed to the indicated targets.
In resting cells, ERK1/2 localizes to the cytoplasm, and once stimulated pERK1/2 migrates to target organelles, particularly the nucleus where transcriptional targets are activated (Wainstein et al. 2016). In DMSO-treated control cells, pERK1/2 is evident in both nuclear and cytoplasmic fractions, which is likely reflective of MAPK pathway activity due to the presence of BRAF^V600E in this cell line.

Q: With `CC(C)Nc1cc(-c2c[nH]c(C(=O)N[C@H](CO)c3cccc(Cl)c3)c2)c(Cl)cn1` [BVD-523] as the molecule, how does the Ki (CDK1/cyclinB) read?
A: 70 nM

Q: And the Ki (CDK5/p35)?
A: 90 nM

Q: And the Ki (CDK6/cycinD3)?
A: 90 nM

Q: What about the Ki (P38γ) of the same molecule?
A: 450 nM

Q: What about the Ki (RSK3) of the same molecule?
A: 450 nM

Q: What about the durable complete responses (A375 xenografts) of the same molecule?
A: 2

Q: And the PRs (upstaged A375 xenografts)?
A: 2

Q: What about the “time of maximal ERK1/2 phosphorylation post-dose” value [1] of the same molecule?
A: 8 h

Q: What about the “time of return of pERK1/2 to pre-dose levels” value [1] of the same molecule?
A: ≤ 24 hours

Q: And the EC50 ([2]; Homo sapiens, human whole blood (HWB), read-out: EC50 based on the ex vivo whole blood assay)?
A: ~0.2 µg/mL (≈ 0.462 µM)

Q: And the inhibition at 10 µM ([2]; Homo sapiens, read-out: maximum inhibition of RSK phosphorylation)?
A: 75.8 ± 2.7%

Q: And the IC50 ([2]; Homo sapiens, whole blood from healthy volunteers, read-out: mean IC50, PMA-stimulated RSK phosphorylation)?
A: 461 ± 20 nM

Q: And the “EC50 based on the ex vivo whole blood assay” value ([2]; human whole blood (HWB))?
A: 200 ng/mL (≈ 0.462 µM)

Q: And the “urinary excretion within 12 hours postdose” value ([3]; first dose and steady state, all dose levels)?
A: < 0.2 % of the dose

Q: And the CL renal ([3]; human, plasma and urine, oral, n≥3, read-out: mean renal clearance values)?
A: 0.248 to 0.5 mL/min

Q: What about the AUC(0-t) ([3]; human, oral, 10 mg, 10 mg BID, Day 1, read-out: AUC0-12) of the same molecule?
A: 220 ng·h/mL

Q: What about the Cmax ([3]; human, oral, 10 mg, 10 mg BID, Day 1, read-out: Cmax) of the same molecule?
A: 48.2 ng/mL

Q: And the AUC(0-t) ([3]; human, oral, 10 mg, 10 mg BID, Day 15, read-out: AUC0-12)?
A: 234 ng·h/mL

Q: What about the Cmax ([3]; human, oral, 10 mg, 10 mg BID, Day 15, read-out: Cmax) of the same molecule?
A: 45.7 ng/mL

Q: And the AUC(0-t) ([3]; human, oral, 20 mg, 20 mg BID, Day 1, read-out: AUC0-12)?
A: 91.7 ng·h/mL

Q: And the Cmax ([3]; human, oral, 20 mg, 20 mg BID, Day 1, read-out: Cmax)?
A: 14.9 ng/mL

Q: What about the AUC(0-t) ([3]; human, oral, 20 mg, 20 mg BID, Day 15, read-out: AUC0-12) of the same molecule?
A: 98.7 ng·h/mL

Q: What about the Cmax ([3]; human, oral, 20 mg, 20 mg BID, Day 15, read-out: Cmax) of the same molecule?
A: 15.8 ng/mL

Q: What about the AUC(0-t) ([3]; human, oral, 40 mg, 40 mg BID, Day 1, read-out: AUC0-12) of the same molecule?
A: 614 ng·h/mL

Q: What about the Cmax ([3]; human, oral, 40 mg, 40 mg BID, Day 1, read-out: Cmax) of the same molecule?
A: 100 ng/mL

Q: And the AUC(0-t) ([3]; human, oral, 40 mg, 40 mg BID, Day 15, read-out: AUC0-12)?
A: 999 ng·h/mL

Q: What about the Cmax ([3]; human, oral, 40 mg, 40 mg BID, Day 15, read-out: Cmax) of the same molecule?
A: 191 ng/mL

Q: What about the AUC(0-t) ([3]; human, oral, 150 mg, 150 mg BID, Day 1, read-out: AUC0-12) of the same molecule?
A: 817 ng·h/mL

Q: And the Cmax ([3]; human, oral, 150 mg, 150 mg BID, Day 1, read-out: Cmax)?
A: 133 ng/mL

Q: And the AUC(0-t) ([3]; human, oral, 150 mg, 150 mg BID, Day 15, read-out: AUC0-12)?
A: 2770 ng·h/mL

Q: And the Cmax ([3]; human, oral, 150 mg, 150 mg BID, Day 15, read-out: Cmax)?
A: 326 ng/mL

Q: And the AUC(0-t) ([3]; human, oral, 300 mg, 300 mg BID, Day 1, read-out: AUC0-12 ± SD)?
A: 4110 ± 1140 ng·h/mL

Q: What about the Cmax ([3]; human, oral, 300 mg, 300 mg BID, Day 1, read-out: Cmax ± SD) of the same molecule?
A: 765 ± 234 ng/mL

Q: And the AUC(0-t) ([3]; human, oral, 300 mg, 300 mg BID, Day 15, read-out: AUC0-12 ± SD)?
A: 4460 ± 2460 ng·h/mL

Q: What about the Cmax ([3]; human, oral, 300 mg, 300 mg BID, Day 15, read-out: Cmax ± SD) of the same molecule?
A: 586 ± 257 ng/mL

Q: What about the AUC(0-t) ([3]; human, oral, 600 mg, 600 mg BID, Day 1, read-out: AUC0-12 ± SD) of the same molecule?
A: 2750 ± 1740 ng·h/mL

Q: What about the AUC(0-t) ([3]; human, oral, 600 mg, 600 mg BID, Day 15, read-out: AUC0-12 ± SD) of the same molecule?
A: 24400 ± 16200 ng·h/mL

Q: What about the Cmax ([3]; human, oral, 600 mg, 600 mg BID, Day 15, read-out: Cmax ± SD) of the same molecule?
A: 2750 ± 170 ng/mL

Q: And the AUC(0-t) ([3]; human, oral, 750 mg, 750 mg BID, Day 1, read-out: AUC0-12 ± SD)?
A: 10700 ng·h/mL

Q: What about the Cmax ([3]; human, oral, 750 mg, 750 mg BID, Day 1, read-out: Cmax ± SD) of the same molecule?
A: 1450 ± 539 ng/mL

Q: What about the AUC(0-t) ([3]; human, oral, 750 mg, 750 mg BID, Day 15, read-out: AUC0-12 ± SD) of the same molecule?
A: 23300 ng·h/mL

Q: And the Cmax ([3]; human, oral, 750 mg, 750 mg BID, Day 15, read-out: Cmax ± SD)?
A: 2290 ng/mL

Q: And the AUC(0-t) ([3]; human, oral, 750 mg, Day 15, reduced from 750 mg to 450 mg/dose, read-out: AUC0-12, individual subject)?
A: 10700 ng·h/mL

Q: What about the Cmax ([3]; human, oral, 750 mg, Day 15, reduced from 750 mg to 450 mg/dose, read-out: Cmax, individual subject) of the same molecule?
A: 1300 ng/mL

Q: What about the AUC(0-t) ([3]; human, oral, 900 mg, 900 mg BID, Day 1, read-out: AUC0-12 ± SD) of the same molecule?
A: 10800 ng·h/mL

Q: And the Cmax ([3]; human, oral, 900 mg, 900 mg BID, Day 1, read-out: Cmax ± SD)?
A: 1430 ± 1010 ng/mL

Q: What about the AUC(0-t) ([3]; human, oral, 900 mg, 900 mg BID, Day 15, read-out: AUC0-12 ± SD) of the same molecule?
A: 15900 ng·h/mL

Q: And the Cmax ([3]; human, oral, 900 mg, 900 mg BID, Day 15, read-out: Cmax ± SD)?
A: 1720 ± 328 ng/mL

Q: And the “dose-exposure relationship (Cmax and AUC)” value ([3]; up to 600 mg BID)?
A: linear and dose proportional

Q: And the inhibition at 10 mg ([4]; 10 mg BID)?
A: 0%

Q: What about the inhibition at 900 mg ([4]; 900 mg BID) of the same molecule?
A: 93 ± 8%

Q: What about the Ki (ERK1; Ki against recombinant ERK1, tight-binding) of the same molecule?
A: < 0.3 nM

Q: And the Ki (ERK1; Ki, ERK1)?
A: ≤ 0.3 nM

Q: What about the T/C (Colo205 xenografts; 25 mg/kg BID) of the same molecule?
A: 25.2%

Q: What about the “mean tumor regression T/Ti” value (Colo205 xenografts; 50 mg/kg BID) of the same molecule?
A: −48.2%

Q: And the “mean tumor regression T/Ti” value (Colo205 xenografts; 75 mg/kg BID)?
A: −77.2%

Q: And the “mean tumor regression T/Ti” value (Colo205 xenografts; 100 mg/kg BID)?
A: −92.3%

Q: Which “pERK1/2 in nuclear and cytoplasmic fractions” value (RKO colorectal cell line) does the source give for `O=C(Nc1ccc2[nH]nc(-c3ccncc3)c2c1)[C@@H]1CCN(CC(=O)N2CCN(c3ccc(-c4ncccn4)cc3)CC2)C1` [SCH772984] here?
A: inhibited phosphorylation of ERK1/2 and RSK
